This is an account of results in patent US20050159481A1, “Medicinal composition for improving angiotension-regulating function of blood vessel endothelium” (CHUGAI SEIYAKU KABUSHIKI KAISHA, priority 2002, published 2005).

For the assay, the system named is rat mesenteric artery sections damaged by oxidized LDL. The assay is described as follows: Vascular endothelium-dependent relaxation response to acetylcholine in rat vessel cross-sections damaged by oxidized LDL. It is filed as cell-based. To be noted: for ACh concentration at which the relaxation degree of 50% was achieved: 30 min perfusion, then oxidized LDL 100 μg/mL for 60 min, sections contracted with 5 μM phenylephrine. On the procedure:
The ability of a compound of the present invention to ameliorate the vascular tone-regulating function of vascular endothelium was evaluated by assaying vascular endothelium-dependent relaxation response to acetylcholine in the presence of a compound of the present invention using cross-section samples of rat vessels damaged by oxidized low-density lipoprotein (oxidized LDL).
Oxidized LDL is a substance derived from an endogenous low-density lipoprotein (LDL) via a exposure to a oxidative stress, and has been reported to be involved in the mechanism by which vascular endothelial cells are damaged (Tanner F C, Noll G, Boulanger C M, Luscher T F, Oxidized low density lipoproteins inhibit relaxations of porcine coronary arteries. Role of scavenger receptor and endothelium-derived nitric oxide. Circulation. 1991, 83:2012-20). The oxidized LDL used in this test was prepared by incubating rabbit LDL suspended at 200 μg/mL in phosphate buffered physiological saline (PBS) prepared by the method of Havel et al. (Havel R. J. et al., J. Clin. Invest., 34, 1345 (1955)) with 5 μM CuSO4 at 37° C. for 24 hours.
First, the mesenteric artery was collected from a rat euthanized by carbon dioxide inhalation into Krebs buffer (containing 118.0 mM NaCl, 4.7 mM KCl, 25.0 mM NaCO3, […] CaCl, 1.5 mM MgSO4 and 10 mM glucose), and the artery was cut into 2 mm wide annular cross sections. Then, the sections were suspended in a Magnus bath where they were equilibrated under a tension of 3 mN for 60 minutes. After equilibration, the sections were contracted with a 5 μM phenylephrine solution in Krebs buffer.
After confirming that a stable contraction was achieved, the perfusion solution was replaced with Krebs buffer containing 20 μM each of test compounds. The test compounds were the compound of the present invention, 4,6-di-t-butyl-5-hydroxy-2,2-di-n-pentyl-2,3-dihydrobenzofuran, and comparative compounds, probucol and α-tocopherol. Probucol is a compound reported to ameliorate the vascular tone-regulating function of vascular endothelium by preventing the decrease of the EDRF-secreting ability of vascular endothelial cells. α-tocopherol is a fat-soluble endogenous antioxidant known to inhibit the oxidation of LDL.
After perfusion for 30 minutes, oxidized LDL was added to a concentration of 100 μg/mL. After equilibration in the perfusion solution containing oxidized LDL for 60 minutes, acetylcholine (ACh) was cumulatively added at concentrations from 1×10^−10 M to 1×10^−5 M. At equally spaced ACh concentrations, the length of each section was measured to calculate the degree of relaxation (%) by dividing the difference between the lengths of the section before and after relaxation by the length before relaxation. This relaxation is a phenomenon resulting from the acetylcholine-induced secretion of EDRF from vascular endothelial cells.
In addition to the experiment described above, a similar experiment was performed except that the perfusion in Krebs buffer containing test compounds and the equilibration with oxidized LDL were omitted (control experiment) or except that the perfusion in Krebs buffer containing test compounds was omitted but the equilibration with oxidized LDL was included (oxidized LDL experiment).
The procedure of test example 1 was followed except that the concentration of the test compound was increased from 20 μM to 50 μM.

The mark [1] stands for this setting: 20 μM test compound, compared with the oxidized LDL experiment, FIG. 1.

`Cc1c(C)c2c(c(C)c1O)CC[C@@](C)(CCC[C@H](C)CCC[C@H](C)CCCC(C)C)O2` [α-tocopherol]: the “ACh concentration at which the relaxation degree of 50% was achieved” value (from here on “ACh concentration … of 50% was achieved”) (20 μM test compound, FIG. 1) is recorded as 261 nM. Moreover, the “Ameliorating effect on the vascular tone-regulating function of vascular endothelium damaged by oxidized LDL” value under setting [1] was “does not ameliorate the vascular tone-regulating function of vascular endothelium”.

Take `CCCCCC1(CCCCC)Cc2c(cc(C(C)(C)C)c(O)c2C(C)(C)C)O1` [compound of the present invention, 4,6-di-t-butyl-5-hydroxy-2,2-di-n-pentyl-2,3-dihydrobenzofuran]: the “ACh concentration … of 50% was achieved” value (20 μM test compound, FIG. 1) stood at 126 nM. The “Ameliorating effect on the vascular tone-regulating function of vascular endothelium damaged by oxidized LDL” value by setting is: under setting [1], “ameliorated the vascular tone-regulating function of vascular endothelium”; (50 μM test compound, compared with the control, FIG. 2) “adverse influence of oxidized LDL-induced damages to vascular endothelial cells on the vascular tone-regulating function was completely removed”.

For `CC(C)(Sc1cc(C(C)(C)C)c(O)c(C(C)(C)C)c1)Sc1cc(C(C)(C)C)c(O)c(C(C)(C)C)c1` [probucol], the “ACh concentration … of 50% was achieved” value (20 μM test compound, FIG. 1) was 121 nM.
